What was measured:
Assay in all cases: relative viability (nuclei count vs DMSO), 5 days (fraction); higher = more cells survive
[1] = compound: O=C(Nc1cccc(C(F)(F)F)c1)Nc1cc(S(=O)(=O)NC2CC2)ccc1-c1ccsc1 [AGI-6780] + NC(=O)Nc1cc(-c2cccc(F)c2)sc1C(=O)N[C@H]1CCCNC1 [AZD7762] (partner 0.2 µM)
How it was run: (§1)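 Lung cancer cell lines in 1536-well plates got either a single drug or a fixed anchor-drug dose together with five library-drug doses (not always all listed) in √10 steps, by pin tool, on the day after seeding. Nuclei were counted after 5 days, and relative viability is the treated-to-vehicle ratio of nuclei counts. Values are medians of duplicate plates.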

[2] = compound: O=C(Nc1cccc(C(F)(F)F)c1)Nc1cc(S(=O)(=O)NC2CC2)ccc1-c1ccsc1 [AGI-6780] + CS(=O)(=O)CCNCc1ccc(-c2ccc3ncnc(Nc4ccc(OCc5cccc(F)c5)c(Cl)c4)c3c2)o1 [Lapatinib] (partner 2 µM)
How it was run: as §1

[3] = compound: O=C(Nc1cccc(C(F)(F)F)c1)Nc1cc(S(=O)(=O)NC2CC2)ccc1-c1ccsc1 [AGI-6780] + O=C(c1cc(Cc2n[nH]c(=O)c3ccccc23)ccc1F)N1CCN(C(=O)C2CC2)CC1 [Olaparib] (partner 8 µM)
How it was run: as §1

[4] = compound: O=C(Nc1cccc(C(F)(F)F)c1)Nc1cc(S(=O)(=O)NC2CC2)ccc1-c1ccsc1 [AGI-6780] + Nc1ncn([C@H]2C[C@H](O)[C@@H](CO)O2)c(=O)n1 [Decitabine] (partner 2 µM)
How it was run: as §1

Cell Line | relative viability ([1]; first compound 0.253 µM) | relative viability ([1]; first compound 0.8 µM) | relative viability ([1]; first compound 2.53 µM) | relative viability ([1]; first compound 8 µM) | relative viability ([2]; first compound 0.08 µM) | relative viability ([2]; first compound 0.253 µM) | relative viability ([2]; first compound 0.8 µM) | relative viability ([2]; first compound 8 µM) | relative viability ([3]; first compound 0.253 µM) | relative viability ([3]; first compound 0.8 µM) | relative viability ([3]; first compound 2.53 µM) | relative viability ([3]; first compound 8 µM) | relative viability ([4]; first compound 0.253 µM) | relative viability ([4]; first compound 0.8 µM) | relative viability ([4]; first compound 2.53 µM) | relative viability ([4]; first compound 8 µM) | relative viability ([1]; first compound 0.08 µM) | relative viability ([2]; first compound 2.53 µM) | relative viability ([3]; first compound 0.08 µM) | relative viability ([4]; first compound 0.08 µM)
NCI-H2405 | 0.725 | 0.603 | 0.752 | 0.658 | 1.05 | 1.08 | 0.938 | 1.1 | 0.85 | 0.776 | 0.838 | 0.758 | 0.781 | 0.662 | 0.626 | 0.66 | – | – | – | –
NCI-H3122 | 1.08 | 1 | 0.91 | 1.05 | 1.02 | 0.987 | 1.09 | 1.08 | 0.626 | 0.725 | 0.706 | 0.649 | 0.411 | 0.42 | 0.331 | 0.498 | 0.983 | 1.02 | 0.608 | 0.447
PC-3 [JPC-3] | 0.758 | 0.984 | 0.877 | 0.729 | 0.467 | 0.513 | 0.451 | 0.48 | 1.09 | 1.11 | 1.18 | 0.962 | 0.797 | 0.868 | 0.802 | 0.775 | – | 0.416 | – | –
PC-14 | 0.33 | 0.453 | 0.455 | 0.397 | 0.312 | 0.348 | 0.312 | 0.291 | 0.282 | 0.234 | 0.318 | 0.276 | 0.226 | 0.295 | 0.217 | 0.198 | 0.355 | 0.314 | 0.378 | 0.22
RERF-LC-KJ | 0.811 | 1.04 | 0.777 | 0.952 | 0.828 | 0.923 | 0.788 | 0.859 | 0.892 | 0.943 | 0.906 | 0.878 | 0.698 | 0.829 | 0.644 | 0.611 | 0.853 | 0.675 | 0.928 | 0.634
